The numbers were not newly measured in PubChem BioAssay AID1259409 (Chemical Carcinogenesis Research Information System (CCRIS), 2018), which cites them from elsewhere.

SMILES strings stand for the structures. Several values for one entry are separate records, joined by “and”; a condition that tells them apart may be missing. Equal entries are not always repeated.

In the data set the test system is rodent chemically induced tumor inhibition, incidence and multiplicity. In words: CCRIS tumor inhibitor studies.

As to `CC(C)Cc1ccc(C(C)C(=O)O)cc1` (configuration not stated), the “tumour outcome (control, treated, inhibition, significance)” value is, setting by setting: (Carcinogen: 4-(METHYLNITROSAMINO)-1-(3-PYRIDYL-1-BUTANONE, 64091-91-4, Dose [Inhibitor]: 0, 263 MG/KG IN DIET FOR 25 WK BEGINNING 2 WK PRIOR TO CARCINOGEN TREATMENT (STUDY DURATION: 25 WK), Route [Inhibitor]: ORAL, Species: MOUSE, Strain/Sex: STRAIN-A/FEMALE, Target Tissue: Type of Lesion: FORESTOMACH: TUMOR, Dose [Carcinogen]: 9.1 MG IN DRINKING WATER FOR 7 WK, Promoter: NONE USED) 7/25 (28%), 0/25 (0%), 100%, p<0.01; (Carcinogen: AZOXYMETHANE, 25843-45-2, Dose [Inhibitor]: 0, 400 PPM IN DIET BEGINNING 1 WK PRIOR TO CARCINOGEN TREATMENT FOR DURATION OF STUDY (STUDY DURATION: 54 WK), Route [Inhibitor]: ORAL, Species: RAT, Strain/Sex: F344/MALE, Target Tissue: Type of Lesion: COLON: ADENOCARCINOMA, Dose [Carcinogen]: 15 MG/KG/BW 1/WK FOR 2 WK, Promoter: NONE USED) 58%, 33%, 43%, p<0.05; (Carcinogen: AZOXYMETHANE, 25843-45-2, Dose [Inhibitor]: 0, 200 PPM IN DIET BEGINNING 1 WK PRIOR TO CARCINOGEN TREATMENT FOR DURATION OF STUDY (STUDY DURATION: 54 WK), Route [Inhibitor]: ORAL, Species: RAT, Strain/Sex: F344/MALE, Target Tissue: Type of Lesion: COLON: ADENOCARCINOMA, Dose [Carcinogen]: 15 MG/KG/BW 1/WK FOR 2 WK, Promoter: NONE USED) 58%, 41%, 29%, not calculated; (Carcinogen: AZOXYMETHANE, 25843-45-2, Dose [Inhibitor]: 0, 200 PPM IN DIET BEGINNING 1 WK PRIOR TO CARCINOGEN TREATMENT FOR DURATION OF STUDY (STUDY DURATION: 54 WK), Route [Inhibitor]: ORAL, Species: RAT, Strain/Sex: F344/MALE, Target Tissue: Type of Lesion: COLON: ADENOMA, Dose [Carcinogen]: 15 MG/KG/BW 1/WK FOR 2 WK, Promoter: NONE USED) 6%, 6%, 0%, not calculated. For the same molecule, the outcome (Carcinogen: AZOXYMETHANE, 25843-45-2, Dose [Inhibitor]: 0, 400 PPM IN DIET BEGINNING 1 WK PRIOR TO CARCINOGEN TREATMENT FOR DURATION OF STUDY (STUDY DURATION: 54 WK), Route [Inhibitor]: ORAL, Species: RAT, Strain/Sex: F344/MALE, Target Tissue: Type of Lesion: COLON: ADENOMA, Dose [Carcinogen]: 15 MG/KG/BW 1/WK FOR 2 WK, Promoter: NONE USED) is listed as 6%, 0,%, 100%, not calculated.

With `NC(=O)NO`, the “tumour outcome (control, treated, inhibition, significance)” value is 95%, 79%, 17%, not significant (Carcinogen: 7,12-DIMETHYLBENZ[A]ANTHRACENE, 57-97-6, Dose [Inhibitor]: 0, 0.5 MG/G BW IN 0.9% SALINE ONCE 1 HR PRIOR TO FIRST PROMOTER DOSE (STUDY DURATION: 22 WK), Route [Inhibitor]: INTRAPERITONEAL, Species: MOUSE, Strain/Sex: NMRI/FEMALE, Target Tissue: Type of Lesion: SKIN: PAPILLOMA, Dose [Carcinogen]: 50 UG/G BW IN SESAME OIL); 95%, 65%, 32%, not calculated (Carcinogen: 7,12-DIMETHYLBENZ[A]ANTHRACENE, 57-97-6, Dose [Inhibitor]: 0, 0.5 MG/G BW IN 0.9% SALINE ONCE 6 HR POST FIRST PROMOTER DOSE (STUDY DURATION: 22 WK), Route [Inhibitor]: INTRAPERITONEAL, Species: MOUSE, Strain/Sex: NMRI/FEMALE, Target Tissue: Type of Lesion: SKIN: PAPILLOMA, Dose [Carcinogen]: 50 UG/G BW IN SESAME OIL); 95%, 60%, 37%, not calculated and 95%, 59%, 38%, not calculated (Carcinogen: 7,12-DIMETHYLBENZ[A]ANTHRACENE, 57-97-6, Dose [Inhibitor]: 0, 0.5 MG/G BW IN 0.9% SALINE ONCE 12 HR POST FIRST PROMOTER DOSE (STUDY DURATION: 22 WK), Route [Inhibitor]: INTRAPERITONEAL, Species: MOUSE, Strain/Sex: NMRI/FEMALE, Target Tissue: Type of Lesion: SKIN: PAPILLOMA, Dose [Carcinogen]: 50 UG/G BW IN SESAME OIL); 95%, 33%, 65%, not calculated and 95%, 30%, 68%, not calculated and 93%, 33%, 65%, not calculated (Carcinogen: 7,12-DIMETHYLBENZ[A]ANTHRACENE, 57-97-6, Dose [Inhibitor]: 0, 0.5 MG/G BW IN 0.9% SALINE ONCE 18 HR POST FIRST PROMOTER DOSE (STUDY DURATION: 22 WK), Route [Inhibitor]: INTRAPERITONEAL, Species: MOUSE, Strain/Sex: NMRI/FEMALE, Target Tissue: Type of Lesion: SKIN: PAPILLOMA, Dose [Carcinogen]: 50 UG/G BW IN SESAME OIL); 95%, 39%, 59%, not calculated and 95%, 45%, 53%, not calculated (Carcinogen: 7,12-DIMETHYLBENZ[A]ANTHRACENE, 57-97-6, Dose [Inhibitor]: 0, 0.5 MG/G BW IN 0.9% SALINE ONCE 24 HR POST FIRST PROMOTER DOSE (STUDY DURATION: 22 WK), Route [Inhibitor]: INTRAPERITONEAL, Species: MOUSE, Strain/Sex: NMRI/FEMALE, Target Tissue: Type of Lesion: SKIN: PAPILLOMA, Dose [Carcinogen]: 50 UG/G BW IN SESAME OIL); 95%, 94%, 1%, not significant (Carcinogen: 7,12-DIMETHYLBENZ[A]ANTHRACENE, 57-97-6, Dose [Inhibitor]: 0, 0.5 MG/G BW IN 0.9% SALINE ONCE 48 HR POST FIRST PROMOTER DOSE (STUDY DURATION: 22 WK), Route [Inhibitor]: INTRAPERITONEAL, Species: MOUSE, Strain/Sex: NMRI/FEMALE, Target Tissue: Type of Lesion: SKIN: PAPILLOMA, Dose [Carcinogen]: 50 UG/G BW IN SESAME OIL).

Turning to `O=S(=O)(O)CCSSCCS(=O)(=O)O`, the “tumour outcome (control, treated, inhibition, significance)” value (Carcinogen: CYCLOPHOSPHAMIDE, 50-18-0, Dose [Inhibitor]: 12 MG/KG BW IN DRINKING WATER 5/WK FOR 20 MO SIMULTANEOUSLY WITH CARCINOGEN TREATMENT (STUDY DURATION: 20 MO), Route [Inhibitor]: ORAL, Species: RAT, Strain/Sex: SPRAGUE-DAWLEY/MALE, Target Tissue: Type of Lesion: NERVOUS TISSUE: NEOPLASM, Dose [Carcinogen]: 2.5 MG/KG BW IN DRINKING WATER 5/WK FOR 20 MO, Promoter: NONE USED) is on record as 14%, 15%, -7%, not calculated; the “tumour outcome (control, treated, inhibition, significance)” value (Carcinogen: CYCLOPHOSPHAMIDE, 50-18-0, Dose [Inhibitor]: 12 MG/KG BW IN DRINKING WATER 5/WK FOR 20 MO SIMULTANEOUSLY WITH CARCINOGEN TREATMENT (STUDY DURATION: 20 MO), Route [Inhibitor]: ORAL, Species: RAT, Strain/Sex: SPRAGUE-DAWLEY/MALE, Target Tissue: Type of Lesion: URINARY BLADDER: TUMOR, Dose [Carcinogen]: 2.5 MG/KG BW IN DRINKING WATER 5/WK FOR 20 MO, Promoter: NONE USED) is on record as 30%, 12%, 60%, p>0.0005*; the “tumour outcome (control, treated, inhibition, significance)” value (Carcinogen: CYCLOPHOSPHAMIDE, 50-18-0, Dose [Inhibitor]: 12 MG/KG BW IN DRINKING WATER 5/WK FOR DURATION OF STUDY SIMULTANEOUSLY WITH CARCINOGEN TREATMENT (STUDY DURATION: LIFE), Route [Inhibitor]: ORAL, Species: RAT, Strain/Sex: SPRAGUE-DAWLEY/MALE, Target Tissue: Type of Lesion: URINARY BLADDER: PAPILLOMA, CARCINOMA, Dose [Carcinogen]: 2.5 MG/KG BW IN DRINKING WATER 5/WK FOR DURATION OF STUDY, Promoter: NONE USED) is 32/100 (32%), 7/50 (14%), 56%, p<0.00005*; the “tumour outcome (control, treated, inhibition, significance)” value (Carcinogen: CYCLOPHOSPHAMIDE, 50-18-0, Dose [Inhibitor]: 35 MG/KG BW IN DRINKING WATER 5/WK FOR 20 MO SIMULTANEOUSLY WITH CARCINOGEN TREATMENT (STUDY DURATION: 20 MO), Route [Inhibitor]: ORAL, Species: RAT, Strain/Sex: SPRAGUE-DAWLEY/MALE, Target Tissue: Type of Lesion: NERVOUS TISSUE: NEOPLASM, Dose [Carcinogen]: 2.5 MG/KG BW IN DRINKING WATER 5/WK FOR 20 MO, Promoter: NONE USED) is given as 14%, 15%, -7%, not calculated; the “tumour outcome (control, treated, inhibition, significance)” value (Carcinogen: CYCLOPHOSPHAMIDE, 50-18-0, Dose [Inhibitor]: 35 MG/KG BW IN DRINKING WATER 5/WK FOR 20 MO SIMULTANEOUSLY WITH CARCINOGEN TREATMENT (STUDY DURATION: 20 MO), Route [Inhibitor]: ORAL, Species: RAT, Strain/Sex: SPRAGUE-DAWLEY/MALE, Target Tissue: Type of Lesion: URINARY BLADDER: TUMOR, Dose [Carcinogen]: 2.5 MG/KG BW IN DRINKING WATER 5/WK FOR 20 MO, Promoter: NONE USED) was 30%, 6%, 80%, p>0.0005*; the “tumour outcome (control, treated, inhibition, significance)” value (Carcinogen: CYCLOPHOSPHAMIDE, 50-18-0, Dose [Inhibitor]: 35 MG/KG BW IN DRINKING WATER 5/WK FOR DURATION OF STUDY SIMULTANEOUSLY WITH CARCINOGEN TREATMENT (STUDY DURATION: LIFE), Route [Inhibitor]: ORAL, Species: RAT, Strain/Sex: SPRAGUE-DAWLEY/MALE, Target Tissue: Type of Lesion: URINARY BLADDER: PAPILLOMA, CARCINOMA, Dose [Carcinogen]: 2.5 MG/KG BW IN DRINKING WATER 5/WK FOR DURATION OF STUDY, Promoter: NONE USED) is 32/100 (32%), 3/50 (6%), 81%, p<0.00005*.
